Measurements taken from patent US9572345B2, “Pesticidal composition in the form of aqueous emulsion” (Sumitomo Chemical Company, Limited, priority 2012, dated 2017).

Experiment: Retention rate of the agriculturally active ingredient after xenon light irradiation (neat film on petri dish)
Format: physicochemical
Details: xenon light (290 nm cutoff), intensity 0.68 W/m^2 at 340 nm, 8 hours, 35° C.; 5 mg air-dried on glass petri dish; HPLC
Experimental: A method for the calculation of a retention rate of the agriculturally active ingredient defined above is more specifically as follows. First, 250 mg of the agriculturally active ingredient is dissolved in 50 ml of a solvent such as acetone, which can sufficiently dissolve the agriculturally active ingredient and also has high volatility, and 1 mL of the solution is added to a glass petri dish having a diameter of 6 cm using a one-mark pipette, spread entirely over the petri dish, and then air-dried at room temperature. The petri dish is covered with a lid made of quartz glass and then set in a weathering tester (manufactured by Q-Lab Corporation under the trade name of Q-SUN Xenon Accelerated Weathering Tester, Model Xe-3) equipped with a borosilicate filter (manufactured by Q-Lab Corporation under the trade name of Daylight-BB Optical Filter) attached thereto. After irradiation with xenon light under the conditions of an intensity at 340 nm of 0.68 W/m^2 and a temperature of 35° C. (35° C. as measured by an insulated black panel thermometer) for 8 hours, the amount of the agriculturally active ingredient remaining on the petri dish is determined by a known determination method such as high-performance liquid chromatography. It is possible to determine a retention rate by calculating as the weight percentage relative to 5 mg of the agriculturally active ingredient used above. […]

- retention rate after irradiation with xenon light: 28.1%
SMILES: C=CCSC(=O)n1c(N)c(-c2ccccc2C)c(=O)n1C(C)C [fenpyrazamine]
